Earlier results as cited in US20060003984A1, “Monobactam compositions and methods of use thereof” (Chiron Corporation, priority 2001, published 2006).

Test system: Gram-negative bacteria
Conditions: many Gram-negative bacteria

Question: With `NC[C@H]1O[C@H](O[C@H]2[C@H](O)[C@@H](O[C@H]3O[C@H](CO)[C@@H](O)[C@H](N)[C@H]3O)[C@H](N)C[C@@H]2N)[C@H](N)C[C@@H]1O` [tobramycin] as the compound, how does the “concentration effective in inhibiting growth” value read?
Answer: The value was less than 4 µg/mL.
